Data published in US7691901B2, “Carotenoid analogs or derivatives for the inhibition and amelioration of inflammation” (Cardax Pharmaceuticals Inc., priority 2004, dated 2010).

Columns and labels:
superoxide anion = assay: Direct superoxide anion scavenging by EPR spectroscopy (DEPMPO spin-trap) in PMA-stimulated isolated human neutrophils; assay type: cell-based; conditions: aqueous phase; statistical mixture of stereoisomers and individual stereoisomers
Description: Leukocyte Isolation and Preparation. Human polymorphonuclear leukocytes (PMNs) were isolated from freshly sampled venous blood of a single volunteer by Percoll density gradient centrifugation as described previously. Briefly, each 10 mL of whole blood was mixed with 0.8 mL of 0.1 M EDTA and 25 mL of saline. The diluted blood was then layered over 9 mL of Percoll at a specific density of 1.080 g/mL. After centrifugation at 400×g for 20 min at 20° C., the plasma, mononuclear cell, and Percoll layers were removed. Erythrocytes were subsequently lysed by addition of 18 mL of ice-cold water for 30 s, followed by 2 mL of 10× PIPES buffer (25 mM PIPES, 110 mM NaCl, and 5 mM KCl, titrated to pH 7.4 with NaOH). Cells were then pelleted at 4° C., the supernatant was decanted, and the procedure was repeated. After the second hypotonic cell lysis, cells were washed twice with PAG buffer [PIPES buffer containing 0.003% human serum albumin (HSA) and 0.1% glucose]. Afterward, PMNs were counted by light microscopy on a hemocytometer. The isolation yielded PMNs with a purity of >95%. The final pellet was then suspended in PAG-CM buffer (PAG buffer with 1 mM CaCl2 and 1 mM MgCl2). EPR Measurements. All EPR measurements were performed using a Bruker ER 300 EPR spectrometer operating at X-band with a TM110 cavity as previously described. The microwave frequency was measured with a Model 575 microwave counter (EIP Microwave, Inc., San Jose, Calif.). To measure superoxide anion (O2) generation from phorbol-ester (PMA)-stimulated PMNs, EPR spin-trapping studies were performed using the spin trap DEPMPO (Oxis, Portland, Oreg.) at 10 mM. 1×10^6 PMNs were stimulated with PMA (1 ng/mL) and loaded into capillary tubes for EPR measurements. To determine the radical scavenging ability of 3 and 9 in aqueous and ethanolic formulations, PMNs were pre-incubated for 5 minutes with test compound, followed by PMA stimulation.
Instrument settings used in the spin-trapping experiments were as follows: modulation amplitude, 0.32 G; time constant, 0.16 s; scan time, 60 s; modulation frequency, 100 kHz; microwave power, 20 milliwatts; and microwave frequency, 9.76 GHz. The samples were placed in a quartz EPR flat cell, and spectra were recorded. The component signals in the spectra were identified and quantified as reported previously.

[1] = test system: ischemia-reperfusion injury; assay: Ischemia-reperfusion injury, experimental infarction model; assay type: in vivo, rodents; conditions: intravenous pretreatment
[2] = Single- and multiple-dose pharmacokinetics of an oral preparation in a murine model; assay type: in vivo; conditions: oral preparation of the racemic compound in lipophilic emulsion
o-tyrosine (oY/F) = assay: Thioglycollate/Zymosan-induced peritonitis model: molar ratios of o-tyrosine (oY/F); assay type: in vivo, mice
Description: Thioglycollate/Zymosan—Induced Peritonitis Model: Wild-type mice were administered either 500 mg/kg body weight of disodium disuccinate astaxanthin (ddAst/Cardax™) in an oil emulsion vehicle, or normal saline (NS) as a negative control, by oral gavage at 24 hours intervals beginning 7 days prior to the induction of peritonitis. Peritonitis was induced experimentally as follows: mice were injected intraperitoneally with 1 ml of 4% by weight thioglycollate (Tg) broth, to induce the recruitment of proinflammatory cells to the peritoneum. Either 16 hours or 72 hours after recruitment, approximately half of the mice were injected intraperitoneally with 250 mg/kg body weight of zymosan (Z) for a further 4 hours. The mice not receiving zymosan underwent no further treatment. Peritoneal lavage was performed in control animals or animals treated with (ddAst) 16 hours post Tg injection, or 20 h following the combination of both Tg injection (16 hours) followed by Z injection (4 hours), as indicated (Tg/Z). Peritoneal lavages were performed with phosphate-buffered saline containing antioxidant (0.1 mM butylated hydroxytoluene (BHT)) and 2 mM of the metal chelator diethylenetriamine pentaacetic acid (DTPA) according to established practices in the art. The lavage suspensions were transferred to screw-capped tubes under an argon atmosphere, and immediately centrifuged at 1000 rpm in a table top microcentrifuge for 10 min at 4° C. to remove whole cells and debris. All analyses of lipid peroxidation products was performed on cell-free lavage supernatants. Cell pellets were resuspended in phosphate-buffered saline containing 0.1 mM BHT and 0.1 mM DTPA, and differential cell counts (macrophages, monocytes, eosinophils, lymphocytes, neutrophils, and erythrocytes) were performed on cytospun preparations of isolated cells according to established procedures in the art.
Electrospray ionization tandem mass spectrometry was used to simultaneously quantify individual molecular species of HETEs, HPETEs, the prostaglandin PGF2α, F2-isoprostanoids, hydroxy- and hydroperoxy-octadecadienoic acids (H(P)ODEs), and their precursors, arachidonic acid (AA) and linoleic acid (LA). Additionally, the molar ratios of o-tyrosine (oY/F). were measured.

[3] = 16 Hour Thioglycollate/4 Hour Zymosan
[4] = 72 Hour Thioglycollate/4 Hour Zymosan

CC1=C(/C=C/C(C)=C/C=C/C(C)=C/C=C/C=C(C)/C=C/C=C(C)/C=C/C2=C(C)C(=O)C(OC(=O)CCC(=O)O)CC2(C)C)C(C)(C)CC(OC(=O)CCC(=O)O)C1=O (stereo not drawn) [Cardax, disodium disuccinate astaxanthin]
direct scavenging of superoxide anion (superoxide anion): potent direct scavengers of superoxide anion in the aqueous phase | cardioprotection [1]: significantly cardioprotective | myocardial salvage ([1]; highest dose tested): up to 56% | plasma and tissue levels of nonesterified astaxanthin [2]: significant plasma and tissue levels of nonesterified astaxanthin were achieved | oY/F (mmol/mol), MEAN (o-tyrosine (oY/F); [3]): 0.145 mmol/mol | oY/F (mmol/mol), MEDIAN (o-tyrosine (oY/F); [3]): 0.117 mmol/mol | oY/F (mmol/mol), MEAN (o-tyrosine (oY/F); 16 Hour Thioglycollate): 0.678 mmol/mol | oY/F (mmol/mol), MEDIAN (o-tyrosine (oY/F); 16 Hour Thioglycollate): 0.521 mmol/mol | oY/F (mmol/mol), MEAN (o-tyrosine (oY/F); [4]): 0.249 mmol/mol | oY/F (mmol/mol), MEDIAN (o-tyrosine (oY/F); [4]): 0.118 mmol/mol | oY/F (mmol/mol), MEAN (o-tyrosine (oY/F); 72 Hour Thioglycollate): 0.257 mmol/mol | oY/F (mmol/mol), MEDIAN (o-tyrosine (oY/F); 72 Hour Thioglycollate): 0.198 mmol/mol | oY/F compared to NS (o-tyrosine (oY/F); 16 hours Tg/4 hour Z, 500 mg/kg oral gavage): significant decrease | oY/F (mmol/mol), MEAN (o-tyrosine (oY/F); Baseline): 0.595 mmol/mol | oY/F (mmol/mol), MEDIAN (o-tyrosine (oY/F); Baseline): 0.565 mmol/mol
